From US10329295B2, “Pyrrolotriazine inhibitors of IRAK4 activity” (MERCK SHARP & DOHME CORP., priority 2015, dated 2019)
Structures can show the parent of a compound that is named as a salt.

Target: GST tagged IRAK4 (Homo sapiens (Human), UniProt Q9NWZ3)
Assay: IRAK4 Kinase Assay (IMAP fluorescence polarization)
Format: biochemical
Settings: 0.5 nM GST tagged IRAK4, 100 μM ATP, 30 minutes at 25° C.
Outline: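 Phosphorylation of a fluorescent peptide (100 nM) was detected by IMAP nanoparticle binding as increased fluorescence polarization. The enzyme was GST-tagged IRAK4 at 0.5 nM, with 100 μM ATP, 1 mM MgCl2 and Tris-HCl pH 7.2. ATP-initiated reactions ran 30 minutes at 25° C.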

GST tagged IRAK4, sequence (Q9NWZ3 whole entry): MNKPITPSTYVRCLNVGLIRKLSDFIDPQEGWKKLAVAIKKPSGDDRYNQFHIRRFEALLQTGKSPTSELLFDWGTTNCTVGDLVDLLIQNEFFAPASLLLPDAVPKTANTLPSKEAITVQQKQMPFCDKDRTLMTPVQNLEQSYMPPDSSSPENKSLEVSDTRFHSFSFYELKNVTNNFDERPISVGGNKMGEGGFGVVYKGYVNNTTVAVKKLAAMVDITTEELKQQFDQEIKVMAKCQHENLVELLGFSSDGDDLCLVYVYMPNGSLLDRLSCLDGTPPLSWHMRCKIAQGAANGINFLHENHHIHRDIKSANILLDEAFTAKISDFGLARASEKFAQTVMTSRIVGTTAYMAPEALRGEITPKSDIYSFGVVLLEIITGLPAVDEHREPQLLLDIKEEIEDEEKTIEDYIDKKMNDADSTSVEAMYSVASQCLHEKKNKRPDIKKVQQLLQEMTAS

IC50 [nM]	Structure (SMILES)
4150	N[C@@H]1[C@H](Nc2ncc3ccc(C(=O)Nc4ccsc4Br)n3n2)CCCC1(F)F [Example 94, 2-{[(1R,2R)-2-amino-3,3-difluorocyclohexyl]amino}-N-(2-bromothiophen-3-yl)pyrrolo[2,1-f][1,2,4]triazine-7-carboxamide trifluoroacetate]
27	N#Cc1ccccc1NC(=O)c1ccc2cnc(N[C@@H]3CCCCNC3)nn12 (single isomer, unassigned) [Example 73, 2-[(3S)- or (3R)-azepan-3-ylamino]-N-(2-cyanophenyl)pyrrolo[2,1-f][1,2,4]triazine-7-carboxamide trifluoroacetate]
4000	N#Cc1ccccc1NC(=O)c1ccc2cnc(N3C[C@H]4CC[C@@H]3CN4)nn12 (single isomer, unassigned) [Example 75, N-(2-cyanophenyl)-2-[(1S,4S)- or (1R,4R)-2,5-diazabicyclo[2.2.2]oct-2-yl]pyrrolo[2,1-f][1,2,4]triazine-7-carboxamide trifluoroacetate]
58	N[C@H]1CCCC[C@H]1Nc1ncc2ccc(C(=O)Nc3ccsc3C(F)(F)F)n2n1 [Example 88, 2-{[(1R,2S)-2-aminocyclohexyl]amino}-N-[2-(trifluoromethyl)thiophen-3-yl]pyrrolo[2,1-f][1,2,4]triazine-7-carboxamide trifluoroacetate]
9	N#Cc1cscc1NC(=O)c1ccc2cnc(N3CCC[C@H](N)C3)nn12 [Example 143, 2-[(3S)-3-aminopiperidin-1-yl]-N-(4-cyanothiophen-3-yl)pyrrolo[2,1-f][1,2,4]triazine-7-carboxamide trifluoroacetate]
1270	N[C@@H]1[C@H](Nc2ncc3ccc(C(=O)Nc4cscc4Cl)n3n2)CCCC1(F)F [Example 126, 2-{[(1R,2R)-2-amino-3,3-difluorocyclohexyl]amino}-N-(4-chlorothiophen-3-yl)pyrrolo[2,1-f][1,2,4]triazine-7-carboxamide trifluoroacetate]
6	N[C@H]1CCCC[C@H]1Nc1ncc2ccc(C(=O)Nc3cscc3Br)n2n1 [Example 14, 2-{[(1R,2S)-2-aminocyclohexyl]amino}-N-(4-bromothiophen-3-yl)pyrrolo[2,1-f][1,2,4]triazine-7-carboxamide trifluoroacetate]
178	N[C@H]1CCCC[C@H]1Nc1ncc2ccc(C(=O)Nc3cnn(CCO)c3)n2n1 [Example 167, 2-{[(1R,2S)-2-aminocyclohexyl]amino}-N-[1-(2-hydroxyethyl)-1H-pyrazol-4-yl]pyrrolo[2,1-f][1,2,4]triazine-7-carboxamide trifluoroacetate]
661	N#Cc1ccccc1NC(=O)c1ccc2cnc(N[C@@H]3CCCC[C@@H]3O)nn12 [Example 71, N-(2-cyanophenyl)-2-{[(1R,2S)-2-hydroxycyclohexyl]amino}-pyrrolo[2,1-f][1,2,4]triazine-7-carboxamide]
2	N[C@H]1CCCC[C@H]1Nc1ncc2ccc(C(=O)Nc3cscc3Cl)n2n1 [Example 109, 2-{[(1R,2S)-2-aminocyclohexyl]amino}-N-(4-chlorothiophen-3-yl)pyrrolo[2,1-f][1,2,4]triazine-7-carboxamide trifluoroacetate]
1040	N#Cc1sccc1NC(=O)c1ccc2cnc(N[C@@H]3CCCC(F)(F)[C@@H]3N)nn12 [Example 158, 2-{[(1R,2R)-2-amino-3,3-difluorocyclohexyl]amino}-N-(2-cyanothiophen-3-yl)pyrrolo[2,1-f][1,2,4]triazine-7-carboxamide formate]
7	N[C@H]1CCCC[C@H]1Nc1ncc2ccc(C(=O)Nc3ccsc3Br)n2n1 [Example 38, 2-{[(1R,2S)-2-aminocyclohexyl]amino}-N-(2-bromothiophen-3-yl)pyrrolo[2,1-f][1,2,4]triazine-7-carboxamide trifluoroacetate]
4	N#Cc1sccc1NC(=O)c1ccc2cnc(N[C@@H]3CCCNC3)nn12 [Example 146, N-(2-cyanothiophen-3-yl)-2-[(3R)-piperidin-3-ylamino]pyrrolo[2,1-f][1,2,4]triazine-7-carboxamide trifluoroacetate]
228	O=C(Nc1ccccc1Cl)c1ccc2cnc(N3CCCNCC3)nn12 [Example 39, N-(2-chlorophenyl)-2-(1,4-diazepan-1-yl)pyrrolo[2,1-f][1,2,4]triazine-7-carboxamide trifluoroacetate]
120	N#Cc1cscc1NC(=O)c1ccc2cnc(N[C@@H]3CCCC(F)(F)[C@@H]3N)nn12 [Example 153, 2-{[(1R,2R)-2-amino-3,3-difluorocyclohexyl]amino}-N-(4-cyanothiophen-3-yl)pyrrolo[2,1-f][1,2,4]triazine-7-carboxamide trifluoroacetate]

Further lines, the molecule ahead of its results:

Structure (SMILES)	IC50 [nM]
Cn1cc(NC(=O)c2ccc3cnc(N[C@@H]4CNC[C@@H](F)C4)nn23)c(C(F)F)n1 [Example 164, N-[3-(difluoromethyl)-1-methyl-1H-pyrazol-4-yl]-2-{[(3S,5S)-5-fluoropiperidin-3-yl]amino}pyrrolo[2,1-f][1,2,4]triazine-7-carboxamide]	0.5
Cn1cc(NC(=O)c2ccc3cnc(N[C@@H]4CNC[C@H](F)C4)nn23)c(C(F)F)n1 [Example 155, N-[3-(difluoromethyl)-1-methyl-1H-pyrazol-4-yl]-2-{[(3S,5R)-5-fluoropiperidin-3-yl]amino}pyrrolo[2,1-f][1,2,4]triazine-7-carboxamide]	7
Cn1cc(NC(=O)c2ccc3cnc(N4C[C@H]5CC[C@@H]4CN5)nn23)c(C(F)(F)F)n1 (single isomer, unassigned) [Example 171, 2-[(1S,4S)- or (1R,4R)-2,5-diazabicyclo[2.2.2]oct-2-yl]-N-[1-methyl-3-(trifluoromethyl)-1H-pyrazol-4-yl]pyrrolo[2,1-f][1,2,4]triazine-7-carboxamide]	64
O=C(Nc1cscc1C(F)F)c1ccc2cnc(N3C[C@@H]4CC[C@H]3CN4)nn12 (single isomer, unassigned) [Example 80, 2-[(1S,4S)- or (1R,4R)-2,5-diazabicyclo[2.2.2]oct-2-yl]-N-[4-(difluoromethyl)thiophen-3-yl]pyrrolo[2,1-f][1,2,4]triazine-7-carboxamide trifluoroacetate]	172
O=C(Nc1cscc1C(F)F)c1ccc2cnc(N3CCCNCC3)nn12 [Example 41, 2-(1,4-diazepan-1-yl)-N-[4-(difluoromethyl)thiophen-3-yl]pyrrolo[2,1-f][1,2,4]triazine-7-carboxamide trifluoroacetate]	88
Cn1cc(NC(=O)c2ccc3cnc(N4CCCNCC4)nn23)c(C(F)(F)F)n1 [Example 6, 2-(1,4-diazepan-1-yl)-N-[1-methyl-3-(trifluoromethyl)-1H-pyrazol-4-yl]pyrrolo[2,1-f][1,2,4]triazine-7-carboxamide trifluoroacetate]	94
Cn1cc(NC(=O)c2ccc3cnc(N4C[C@@H]5CC[C@H]4CN5)nn23)c(Cl)n1 (single isomer, unassigned) [Example 44, N-(3-chloro-1-methyl-1H-pyrazol-4-yl)-2-[(1S,4S)- or (1R,4R)-2,5-diazabicyclo[2.2.2]oct-2-yl]pyrrolo[2,1-f][1,2,4]triazine-7-carboxamide trifluoroacetate]	125
Cn1cc(NC(=O)c2ccc3cnc(N4C[C@H]5CC[C@@H]4CN5)nn23)c(Br)n1 (single isomer, unassigned) [Example 64, N-(3-bromo-1-methyl-1H-pyrazol-4-yl)-2-[(1S,4S)- or (1R,4R)-2,5-diazabicyclo[2.2.2]oct-2-yl]pyrrolo[2,1-f][1,2,4]triazine-7-carboxamide trifluoroacetate]	122
O=C(Nc1ccsc1Br)c1ccc2cnc(N3C[C@H]4CC[C@@H]3CN4)nn12 (single isomer, unassigned) [Example 49, N-(2-bromothiophen-3-yl)-2-[(1S,4S)- or (1R,4R)-2,5-diazabicyclo[2.2.2]oct-2-yl]pyrrolo[2,1-f][1,2,4]triazine-7-carboxamide trifluoroacetate]	1930
Cn1cc(NC(=O)c2ccc3cnc(N4C[C@H]5CN[C@H](C5)C4)nn23)c(C#N)n1 (single isomer, unassigned) [Example 114, N-(3-cyano-1-methyl-1H-pyrazol-4-yl)-2-[(1S,5S)- or (1R,5R)-3,6-diazabicyclo[3.2.1]oct-3-yl]pyrrolo[2,1-f][1,2,4]triazine-7-carboxamide]	390
N#Cc1sccc1NC(=O)c1ccc2cnc(N3CCC[C@@H](N)C3)nn12 [Example 141, 2-[(3R)-3-aminopiperidin-1-yl]-N-(2-cyanothiophen-3-yl)pyrrolo[2,1-f][1,2,4]triazine-7-carboxamide trifluoroacetate]	26
